Experiment [1] deals with T1, TRPC5 (Homo sapiens, UniProt Q9UL62).
T1 sequence (Q9UL62 1-973): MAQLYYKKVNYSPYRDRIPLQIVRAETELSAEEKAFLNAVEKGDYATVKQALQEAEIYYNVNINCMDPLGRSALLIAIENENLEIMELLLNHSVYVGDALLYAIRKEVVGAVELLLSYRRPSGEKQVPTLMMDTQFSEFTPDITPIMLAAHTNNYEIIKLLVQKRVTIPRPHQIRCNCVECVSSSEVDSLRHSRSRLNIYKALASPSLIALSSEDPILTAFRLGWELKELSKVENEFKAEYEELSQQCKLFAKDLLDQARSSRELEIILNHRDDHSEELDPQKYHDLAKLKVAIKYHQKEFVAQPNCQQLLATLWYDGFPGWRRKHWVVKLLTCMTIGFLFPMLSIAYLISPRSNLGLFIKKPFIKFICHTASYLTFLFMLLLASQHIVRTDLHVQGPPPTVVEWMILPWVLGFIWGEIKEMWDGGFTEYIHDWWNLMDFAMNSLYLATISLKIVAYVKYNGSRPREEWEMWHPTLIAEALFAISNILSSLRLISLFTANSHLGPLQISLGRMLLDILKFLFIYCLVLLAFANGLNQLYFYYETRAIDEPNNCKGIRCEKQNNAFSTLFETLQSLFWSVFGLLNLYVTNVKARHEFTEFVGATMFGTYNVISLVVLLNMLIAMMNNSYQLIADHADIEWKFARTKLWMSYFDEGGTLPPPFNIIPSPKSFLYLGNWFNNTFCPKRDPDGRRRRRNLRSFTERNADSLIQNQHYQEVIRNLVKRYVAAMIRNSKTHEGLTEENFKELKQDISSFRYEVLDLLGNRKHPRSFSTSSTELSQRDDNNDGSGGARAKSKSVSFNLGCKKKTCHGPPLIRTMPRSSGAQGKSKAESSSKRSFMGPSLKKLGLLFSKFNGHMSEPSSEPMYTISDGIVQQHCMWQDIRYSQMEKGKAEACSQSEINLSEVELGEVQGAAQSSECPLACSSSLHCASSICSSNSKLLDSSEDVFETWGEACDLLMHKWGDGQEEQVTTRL
Put plainly: cell-based.

Experiment [2] deals with T2, TRPC4 (Homo sapiens, UniProt Q9UBN4).
T2 construct: expressed in transfected cells
T2 sequence (Q9UBN4 whole entry): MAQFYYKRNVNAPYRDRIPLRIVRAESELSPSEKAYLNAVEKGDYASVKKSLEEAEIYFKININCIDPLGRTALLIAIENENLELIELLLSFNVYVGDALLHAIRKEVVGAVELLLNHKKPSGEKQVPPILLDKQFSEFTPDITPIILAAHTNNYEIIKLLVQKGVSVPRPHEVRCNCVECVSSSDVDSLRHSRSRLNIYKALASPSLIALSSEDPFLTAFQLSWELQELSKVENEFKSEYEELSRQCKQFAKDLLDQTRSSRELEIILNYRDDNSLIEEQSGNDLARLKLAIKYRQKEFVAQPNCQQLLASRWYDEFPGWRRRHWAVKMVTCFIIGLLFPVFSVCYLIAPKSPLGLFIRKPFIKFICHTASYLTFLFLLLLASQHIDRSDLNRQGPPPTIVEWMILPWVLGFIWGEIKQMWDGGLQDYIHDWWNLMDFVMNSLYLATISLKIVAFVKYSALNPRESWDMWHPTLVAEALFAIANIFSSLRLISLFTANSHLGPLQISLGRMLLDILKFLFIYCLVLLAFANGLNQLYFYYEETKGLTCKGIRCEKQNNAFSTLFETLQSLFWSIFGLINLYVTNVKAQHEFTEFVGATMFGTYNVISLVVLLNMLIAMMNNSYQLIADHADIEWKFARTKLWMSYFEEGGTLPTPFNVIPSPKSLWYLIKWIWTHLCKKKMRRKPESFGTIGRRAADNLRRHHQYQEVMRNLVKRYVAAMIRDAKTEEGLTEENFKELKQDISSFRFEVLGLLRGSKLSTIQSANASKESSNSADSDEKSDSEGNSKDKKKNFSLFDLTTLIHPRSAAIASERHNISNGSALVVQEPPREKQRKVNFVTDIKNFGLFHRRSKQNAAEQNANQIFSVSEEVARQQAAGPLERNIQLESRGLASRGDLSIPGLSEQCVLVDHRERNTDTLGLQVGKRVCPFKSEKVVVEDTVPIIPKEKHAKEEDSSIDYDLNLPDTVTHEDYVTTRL
Put plainly: Whole-cell patch-clamp, TRPC4, 100 nmol/L EA. The experiment is classed as cell-based. Particulars: HEK293T. From the text:
Given that TRPC4 and TRPC5 are highly similar and often form heteromeric with TRPC1, we evaluated JDIC-127's activity on TRPC4, TRPC1/4, and TRPC1/5 using whole-cell patch-clamp recordings under agonist stimulation with 100 nmol/L EA in HEK293T cells. […].
For electrophysiological activity testing of compounds against TRPC4 and TRPC5, stably expressed TRPC5 or TRPC4 cells were used for whole-cell patch-clamp recordings, employing a HEKA EPC10 amplifier and […] software (https://www.heka.com/downloads/downloads_main.html#down_patchmaster). Prior to recording, cells were induced with 1 μg/mL tetracycline for 24 h. For TRPC1/4 or TRPC1/5 heteromers, plasmids TRPC1 and TRPC5 or TRPC1 and TRPC4 were co-transfected into HEK293T cells. After 48 to 72 h of transfection, testing was performed. A 1-s ramp protocol from −100 to +100 mV at 0.2 Hz was applied, as previously described. The extracellular solution consisted of 140 mmol/L NaCl, 1 mmol/L MgCl2, 2 mmol/L CaCl2, 10 mmol/L Hepes, 5 mmol/L KCl, and 10 mmol/L D-glucose, with pH adjusted to 7.4 using NaOH. […] The half-maximal inhibitory concentration (IC50) of drugs was determined by recording currents at a +100 mV pulse and analyzing current amplitudes at varying drug concentrations, with IC50 values calculated using the Hill equation. […]
(The patch-clamp technique gives a direct electrical read-out from membranes.)

Experiment [3] addresses TRPV1 (Homo sapiens, UniProt Q8NER1). The experiment is described as follows: Patch-clamp selectivity, TRPV1. The experiment is classed as cell-based. Particulars: 10 μmol/L.
Experiment [4] has as its system C57BL/6 mice. The experiment is described as follows: Tail suspension test (TST). The experiment is classed as in vivo.
For experiment [5], the system named is C57BL/6J mice. Put plainly: m-CPP-induced anxiety model, open field test. It counts as in vivo. Conditions: 10 mg/kg p.o.
For experiment [6], the target named is T3, M2 (Homo sapiens, UniProt P08172).
T3 construct: purchased ICE Bioscience ICESTP SafetyOne44 Panel
T3 sequence (P08172 whole entry): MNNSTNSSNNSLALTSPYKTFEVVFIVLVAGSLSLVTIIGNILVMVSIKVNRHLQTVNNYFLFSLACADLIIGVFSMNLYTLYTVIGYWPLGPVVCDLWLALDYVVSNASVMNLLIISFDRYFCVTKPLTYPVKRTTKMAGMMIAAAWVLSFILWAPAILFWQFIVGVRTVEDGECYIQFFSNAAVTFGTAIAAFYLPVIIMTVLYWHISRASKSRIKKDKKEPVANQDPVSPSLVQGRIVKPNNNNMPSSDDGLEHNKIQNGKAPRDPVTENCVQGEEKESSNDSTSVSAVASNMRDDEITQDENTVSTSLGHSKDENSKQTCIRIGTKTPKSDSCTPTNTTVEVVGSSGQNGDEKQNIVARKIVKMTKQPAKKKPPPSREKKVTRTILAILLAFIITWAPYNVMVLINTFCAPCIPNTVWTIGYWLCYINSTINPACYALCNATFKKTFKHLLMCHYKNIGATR
The experiment is described as follows: cell-based. The experiment is classed as cell-based.

The target of experiment [7] is T4, 5-HT1A (Homo sapiens, UniProt P08908).
T4 construct: purchased ICE Bioscience ICESTP SafetyOne44 Panel
T4 sequence (P08908 whole entry): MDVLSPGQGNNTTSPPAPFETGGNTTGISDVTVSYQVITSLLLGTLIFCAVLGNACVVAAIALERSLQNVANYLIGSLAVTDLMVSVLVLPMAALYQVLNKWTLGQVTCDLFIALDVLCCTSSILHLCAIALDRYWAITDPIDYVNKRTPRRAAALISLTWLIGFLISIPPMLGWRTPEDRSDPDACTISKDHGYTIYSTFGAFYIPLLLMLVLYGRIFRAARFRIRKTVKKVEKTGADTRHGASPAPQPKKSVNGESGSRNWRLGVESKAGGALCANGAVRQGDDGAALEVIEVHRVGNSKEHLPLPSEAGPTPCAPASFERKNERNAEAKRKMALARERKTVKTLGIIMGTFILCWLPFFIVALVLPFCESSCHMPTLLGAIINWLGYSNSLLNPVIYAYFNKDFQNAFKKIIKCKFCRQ
The experiment is described as follows: cell-based. The experiment is classed as cell-based.

Experiment [8] addresses T5, α2A (Homo sapiens, UniProt P08913).
T5 construct: purchased ICE Bioscience ICESTP SafetyOne44 Panel
Put plainly: cell-based. It counts as cell-based.

For experiment [9], the target named is T6, β2 (Homo sapiens, UniProt P07550).
T6 construct: purchased ICE Bioscience ICESTP™ SafetyOne44 Panel
T6 sequence (P07550 whole entry): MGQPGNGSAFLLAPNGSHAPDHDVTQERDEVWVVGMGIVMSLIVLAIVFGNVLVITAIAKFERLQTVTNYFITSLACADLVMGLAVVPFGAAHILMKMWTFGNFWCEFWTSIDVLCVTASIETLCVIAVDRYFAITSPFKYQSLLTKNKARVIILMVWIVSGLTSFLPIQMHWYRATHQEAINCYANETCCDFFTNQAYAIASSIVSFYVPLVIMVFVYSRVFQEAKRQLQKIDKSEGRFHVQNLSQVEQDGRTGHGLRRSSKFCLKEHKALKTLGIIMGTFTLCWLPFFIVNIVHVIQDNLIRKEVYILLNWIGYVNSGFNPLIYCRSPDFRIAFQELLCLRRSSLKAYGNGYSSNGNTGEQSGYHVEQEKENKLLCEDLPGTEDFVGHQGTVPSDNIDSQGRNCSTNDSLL
The experiment is described as follows: SafetyOne44 panel: β2. The experiment is classed as cell-based.

Experiment [10] addresses T7, LCK (Homo sapiens, UniProt P06239).
T7 construct: purchased ICE Bioscience ICESTP™ SafetyOne44 Panel
Put plainly: biochemical. Conditions: 10 μmol/L, read-out: Antagonist JDIC-127 @10 μmol/L.

For experiment [11], the target named is T8, 5-HTT (Homo sapiens, UniProt P31645).
T8 construct: purchased ICE Bioscience ICESTP™ SafetyOne44 Panel
Put plainly: SafetyOne44 panel: 5-HTT. The experiment is classed as cell-based. Conditions: 10 μmol/L, read-out: Antagonist JDIC-127 @10 μmol/L.

Experiment [12] concerns the target T9, Nav1.5 (Homo sapiens, UniProt Q14524).
T9 construct: ICE Bioscience ICESTP SafetyOne44 Panel
Put plainly: SafetyOne44 panel ion channels: Nav1.5. The experiment is classed as cell-based. Particulars: Nav1.5, 5 μmol/L.

Experiment [13] deals with COX1 (Homo sapiens, UniProt P23219).
In experiment [14] the target is H1 (Homo sapiens, UniProt P35367). Put plainly: cell-based. Particulars: read-out: Antagonist JDIC-127 @10 μmol/L.
Chain of H1 (P35367 whole entry): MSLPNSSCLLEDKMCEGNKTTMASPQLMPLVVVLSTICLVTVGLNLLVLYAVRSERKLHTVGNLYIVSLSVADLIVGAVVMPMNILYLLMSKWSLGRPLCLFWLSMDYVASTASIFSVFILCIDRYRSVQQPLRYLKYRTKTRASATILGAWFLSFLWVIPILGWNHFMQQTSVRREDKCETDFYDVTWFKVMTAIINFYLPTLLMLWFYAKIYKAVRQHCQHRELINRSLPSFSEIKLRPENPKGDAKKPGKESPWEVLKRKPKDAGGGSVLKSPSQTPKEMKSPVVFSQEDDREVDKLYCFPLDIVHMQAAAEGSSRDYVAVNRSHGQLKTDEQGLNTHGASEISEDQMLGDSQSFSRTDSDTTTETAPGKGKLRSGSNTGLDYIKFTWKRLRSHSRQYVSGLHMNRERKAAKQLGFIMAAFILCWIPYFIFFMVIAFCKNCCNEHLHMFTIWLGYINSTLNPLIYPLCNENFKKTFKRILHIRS
Where [15] appears, read: antagonist mode, 10 μmol/L, read-out: Antagonist JDIC-127 @10 μmol/L.

A value given as a limit tells only on which side of the number the result lay.

T5 sequence (P08913 whole entry): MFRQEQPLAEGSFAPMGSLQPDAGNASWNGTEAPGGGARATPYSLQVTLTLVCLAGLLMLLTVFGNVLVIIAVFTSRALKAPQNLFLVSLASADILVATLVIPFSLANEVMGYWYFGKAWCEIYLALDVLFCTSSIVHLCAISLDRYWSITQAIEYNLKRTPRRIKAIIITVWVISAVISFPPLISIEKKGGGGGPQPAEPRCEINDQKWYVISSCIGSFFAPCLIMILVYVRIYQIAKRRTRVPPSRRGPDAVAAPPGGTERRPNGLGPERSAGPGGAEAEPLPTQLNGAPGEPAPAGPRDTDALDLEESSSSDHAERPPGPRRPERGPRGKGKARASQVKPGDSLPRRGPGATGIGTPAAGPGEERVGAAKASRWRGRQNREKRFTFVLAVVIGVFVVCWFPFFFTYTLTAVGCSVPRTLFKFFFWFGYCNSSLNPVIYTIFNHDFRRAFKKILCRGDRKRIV
Chain of TRPV1 (Q8NER1 whole entry, species assumed): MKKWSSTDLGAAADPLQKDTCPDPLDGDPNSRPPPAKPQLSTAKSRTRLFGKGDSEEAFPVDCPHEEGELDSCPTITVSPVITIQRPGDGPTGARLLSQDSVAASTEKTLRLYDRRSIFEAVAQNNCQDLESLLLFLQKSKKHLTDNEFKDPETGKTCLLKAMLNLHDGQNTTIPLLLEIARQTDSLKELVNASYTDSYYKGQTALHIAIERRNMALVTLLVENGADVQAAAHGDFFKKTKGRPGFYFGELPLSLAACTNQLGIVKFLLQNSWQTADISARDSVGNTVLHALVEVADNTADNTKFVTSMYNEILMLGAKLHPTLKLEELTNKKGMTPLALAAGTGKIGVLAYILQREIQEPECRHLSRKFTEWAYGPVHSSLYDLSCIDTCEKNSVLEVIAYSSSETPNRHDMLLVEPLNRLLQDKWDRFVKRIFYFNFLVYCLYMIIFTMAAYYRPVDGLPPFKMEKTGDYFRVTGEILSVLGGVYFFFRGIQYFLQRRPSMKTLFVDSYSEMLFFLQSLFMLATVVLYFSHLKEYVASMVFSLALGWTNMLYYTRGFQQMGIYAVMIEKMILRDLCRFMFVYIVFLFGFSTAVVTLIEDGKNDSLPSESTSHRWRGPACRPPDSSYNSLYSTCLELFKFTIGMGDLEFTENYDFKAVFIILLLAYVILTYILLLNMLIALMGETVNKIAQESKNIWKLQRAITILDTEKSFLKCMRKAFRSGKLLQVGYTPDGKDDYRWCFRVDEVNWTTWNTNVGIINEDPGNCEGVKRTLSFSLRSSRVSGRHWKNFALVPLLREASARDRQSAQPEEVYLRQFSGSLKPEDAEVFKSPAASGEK
T7 sequence (P06239 whole entry): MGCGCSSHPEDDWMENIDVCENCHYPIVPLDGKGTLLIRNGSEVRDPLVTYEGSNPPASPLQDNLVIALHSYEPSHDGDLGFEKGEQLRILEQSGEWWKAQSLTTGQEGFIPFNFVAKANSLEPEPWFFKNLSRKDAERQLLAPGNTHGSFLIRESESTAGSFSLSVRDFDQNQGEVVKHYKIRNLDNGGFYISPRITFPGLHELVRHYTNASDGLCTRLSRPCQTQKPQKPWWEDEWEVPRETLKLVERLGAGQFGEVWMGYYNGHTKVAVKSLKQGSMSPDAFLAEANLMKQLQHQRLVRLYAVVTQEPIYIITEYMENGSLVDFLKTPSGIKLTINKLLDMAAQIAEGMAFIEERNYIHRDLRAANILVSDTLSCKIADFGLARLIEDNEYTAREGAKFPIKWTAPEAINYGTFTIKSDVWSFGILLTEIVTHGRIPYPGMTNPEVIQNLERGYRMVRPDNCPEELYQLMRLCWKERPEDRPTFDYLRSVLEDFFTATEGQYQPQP

Take `O=c1c2c3nc(n2Cc2ccc(Cl)cc2)Oc2ccc(F)c(c2)OCCCCCCn3c(=O)n1CCCO` [JDIC-127]: the IC50 in experiment [1] (HEK293T, 100 nmol/L Englerin A, read-out: IC50, inhibition of TRPC5, calcium flux assay) came out at 0.066 nM; in experiment [2], 0.001 nM. In experiment [1] (at concentrations of 1.4 nmol/L or higher), the “inhibition of TRPC5 calcium influx” value was “More than 80%”. Also, the “fold increase in activity (vs compound 6)” value in experiment [1] (calcium flux, SAR) was “approximately 15 fold”. Also, the inhibition at 10 µM in experiment [3] was under 33%; in experiment [6] (M2, antagonist mode, 10 μmol/L, read-out: Antagonist JDIC-127 @10 μmol/L), -0.26%; in experiment [7] (setting [15]) it was -6.7%; in experiment [8] (setting [15]), -8.62%; in experiment [9] (β2, antagonist mode, 10 μmol/L, read-out: Antagonist JDIC-127 @10 μmol/L), 19.6%; in experiment [10] it was 29.4%. The inhibition at 10 µM was -31.8% in experiment [11] and -3.39% in experiment [14]. For the same compound, the “efficacy in TST relative to reference drugs” value in [4] (0.3 mg/kg p.o. vs 10 mg/kg desipramine, 3 mg/kg HC-070) was “comparable efficacy to desipramine and HC-070”. The “immobility time in TST” value in experiment [4] (0.3 or 3 mg/kg p.o., 60 min prior to testing) was “significantly reduced”. Further, the “number of entries into the central area, OFT” value in [5] is listed as “significantly increased”. Besides, the “Agonist JDIC-127 @10 μmol/L” value in experiment [6] (M2, agonist mode) is listed as 2.82%; in experiment [7] (agonist mode), “–1.59%”; in [8] (agonist mode), “–1.14%”; in [9] (β2, agonist mode) it was “–1.53%”. Besides, the “Antagonist JDIC-127 @5 μmol/L” value in experiment [12] was found to be 2.98%. In experiment [13], the “Antagonist JDIC-127 @10 μmol/L” value is “–5.92%”.

The term IC50 denotes the concentration at which inhibition is half-maximal.

The record behind these values is paper PMC12827894, “Structure-guided design of picomolar-level macrocyclic TRPC5 channel inhibitors with antidepressant activity” (Acta Pharmaceutica Sinica. B, 2025).
